{
  "source": "patent US6451837B1",
  "about": "“Neuroprotective effects of mitogen-activated protein kinase (MAPK) cascade inhibitors” (priority 1999, dated 2002)",
  "assay_type_in_all_cases": "cell-based, Wistar rat",
  "key": {"[1]": {"test_system": "cultured hippocampal tissue explants", "experiment": "NMDA-induced cell death in cultured hippocampal slices, propidium iodide fluorescence", "settings": "for neuroprotection to nerve cells, as described in Example 1: PD098059 about 30-90 μM, apigenin about 25-100 μM; for number of dead cells lower than in explants treated with NMDA alone: staurosporine 0.2 μM; for reduction of NMDA toxicity: treated 2 hours prior to NMDA 50 μM, PD098059 30-90 μM, wortmannin 1-5 μM, FIG. 2-4"}, "[2]": {"test_system": "cultured hippocampal tissue explants", "experiment": "Cell death induced by transfer to fresh culture medium in cultured hippocampal slices, propidium iodide fluorescence", "method": "(§1) Seven day old Wistar rat pups were anaesthetized with fluothane, decapitated and transverse hippocampal slices (400 microns) were cultured for 12 days on 6-well tissue culture plates containing 1 ml of culture medium. The medium composition was 50% minimal essential medium (MEM), 25% horse serum, 25% Earl's balanced salt solution with D-glucose and HEPES, penicillin G and streptomycin sulfate, 5000 units/ml and 5 μg/ml respectively and the pH, 7.15. Slices were cultured at 36.5° C., 100% humidity, 95% air and 5% CO2 atmosphere, and were fed twice weekly by 50% medium exchange. All drugs were dissolved in water or dimethylsulfoxide (DMSO, final concentration was 0.1%) to make stock solutions. Controls for DMSO effects were performed where appropriate. To apply a drug, the stock solution was dissolved in 1 ml of fresh culture medium to make a desired concentration. Then, hippocampal slices were transferred for a specified time interval to the fresh medium containing the drug. To terminate the drug action, slices were again transferred to a fresh medium containing 2 mg/ml propidium iodide (PI). The medium temperature was kept at 36° C. during the transfers. Since the change of medium induced nerve cell death, control experiments were performed by transferring hippocampal slices an equal number of times into the fresh medium with the intervals between transfers equal to the time interval that slices were exposed to the drug. In a separate series of experiments the medium replacement was performed twice with a 30 minute interval in order to induce cell death. Cell death was measured as the PI fluorescence intensity by using MRC-600 Laser Scanning Confocal Imaging System. PI was added to the medium 30 minutes prior to taking control images (immediately before the drug treatment). […] Each experiment was performed at least in triplicate, on 5-6 slices each time and data expressed as an average of all experiments. Cell death index was derived from PI fluorescence intensity normalized to the intensity values obtained after the 48 hour exposure of slices to an ambient temperature of 4° C. […]"}, "[3]": {"test_system": "cultured hippocampal tissue explants", "experiment": "Cell death induced by amyloid β-protein fragment 25-35 in cultured hippocampal slices", "settings": "30-90 μM for 2 hours prior to the addition of toxic peptides", "method": "as §1, with “To terminate the drug action, slices were again transferred to a fresh medium containing 2 mg/ml propidium iodide (PI). The medium temperature was kept at 36° C. during the transfers. Since the change of medium induced nerve cell death, control experiments were performed by transferring hippocampal slices an equal number of times into the fresh medium with the intervals between transfers equal to the time interval that slices were exposed to the drug. In a separate series of experiments the medium replacement was performed twice with a 30 minute interval in order to induce cell death.” left out, “System.” for “System. PI was added to the medium 30 minutes prior to taking control images (immediately before the drug treatment).”"}, "[4]": {"settings": "24 hours after NMDA exposure, FIG. 5"}},
  "data": [
    {"smiles": "CN[C@H](CC(=O)O)C(=O)O", "note": "[NMDA, N-methyl-D-aspartate]", "values": [
      {"measurement": "cells killed, relative to 4° C. exposure taken as 100% of cells", "setting": "[1]; 50 μM NMDA, 30 minutes exposure", "result": "approximately 30%"},
      {"measurement": "cell death in the dentate gyrus", "setting": "[1]; NMDA 2.5-500 μM", "result": "did not induce concentration-dependent increase in cell death"},
      {"measurement": "cell death in the CA1-CA4 region of the hippocampus", "setting": "[1]; NMDA 2.5-500 μM for 30 minutes", "result": "marked cell death"}
    ]},
    {"smiles": "N[C@H](CCCP(=O)(O)O)C(=O)O", "note": "[d-APV]", "values": [
      {"measurement": "block of NMDA-induced cell death", "setting": "[1]; slices exposed to NMDA for 30 minutes", "result": "could be blocked"}
    ]},
    {"smiles": "O=c1cc(-c2ccc(O)cc2)oc2cc(O)cc(O)c12", "note": "[apigenin]", "values": [
      {"measurement": "neuroprotection to nerve cells, as described in Example 1", "setting": "[1]", "result": "effective in providing neuroprotection"}
    ]},
    {"smiles": "COc1cccc(-c2cc(=O)c3ccccc3o2)c1N", "note": "[PD098059, 2-(2′-amino-3′methoxyphenyl)-oxanaphthalen-4-one]", "values": [
      {"measurement": "cell death after exposure to fresh medium at 24 hours", "setting": "[2]; 24 hours, PD098059 30-90 μM for 2 hours prior, wortmannin 1 μM, FIG. 6", "result": "significantly reduced cell death"},
      {"measurement": "cell death after exposure to fresh medium at 72 hours", "setting": "[2]; 72 hours, PD098059 30-90 μM for 2 hours prior, wortmannin 1 μM, FIG. 6", "result": "significantly reduced cell death"},
      {"measurement": "cell death induced by toxic amyloid peptides", "setting": "[3]", "result": "prevented cell death"},
      {"measurement": "number of dead cells lower than in explants treated with staurosporine", "setting": "[1]; [4]", "result": 33, "unit": "%"},
      {"measurement": "number of dead cells lower than in explants treated with NMDA alone", "setting": "[1]; [4]", "result": 95, "unit": "%"},
      {"measurement": "neuroprotection to nerve cells, as described in Example 1", "setting": "[1]", "result": "effective in providing neuroprotection"},
      {"measurement": "reduction of NMDA-induced cell death", "setting": "[1]; applied immediately after NMDA", "result": "effective in reducing NMDA-induced cell death"},
      {"measurement": "reduction of NMDA toxicity", "setting": "[1]", "result": "significantly reduced NMDA toxicity"}
    ]},
    {"smiles": "CN[C@@H]1C[C@H]2O[C@@](C)([C@@H]1OC)n1c3ccccc3c3c4c(c5c6ccccc6n2c5c31)C(=O)NC4", "note": "[staurosporine]", "values": [
      {"measurement": "number of dead cells lower than in explants treated with NMDA alone", "setting": "[1]; [4]", "result": 45, "unit": "%"},
      {"measurement": "reduction of NMDA toxicity", "setting": "[1]", "result": "somewhat effective"}
    ]},
    {"smiles": "NC(CCCP(=O)(O)O)C(=O)O", "note": "(stereo not shown) [AP5]", "values": [
      {"measurement": "block of the increase in cell death caused by transfers to fresh medium", "setting": "[2]; AP5 20 μM, CA1-CA4 and dentate gyrus", "result": "not blocked"}
    ]}
  ]
}
